{
  "source": "patent US11351155B2",
  "about": "“Compositions and methods of modulating s-nitrosylation” (CASE WESTERN RESERVE UNIVERSITY, priority 2014, dated 2022)",
  "molecules": {"B1": {"name": "Adh6 (Saccharomyces cerevisiae S288C) (protein)", "chain": "MSYPEKFEGIAIQSHEDWKNPKKTKYDPKPFYDHDIDIKIEACGVCGSDIHCAAGHWGNMKMPLVVGHEIVGKVVKLGPKSNSGLKVGQRVGVGAQVFSCLECDRCKNDNEPYCTKFVTTYSQPYEDGYVSQGGYANYVRVHEHFVVPIPENIPSHLAAPLLCGGLTVYSPLVRNGCGPGKKVGIVGLGGIGSMGTLISKAMGAETYVISRSSRKREDAMKMGADHYIATLEEGDWGEKYFDTFDLIVVCASSLTDIDFNIMPKAMKVGGRIVSISIPEQHEMLSLKPYGLKAVSISYSALGSIKELNQLLKLVSEKDIKIWVETLPVGEAGVHEAFERMEKGDVRYRFTLVGYDKEFSD", "notes": "endogenous in cells; host or cells: S. cerevisiae cells; five-step chromatographic purification from crude extract"}, "B2": {"name": "AKR1A1 (Bos taurus) (protein)", "chain": "MAASCILLHTGQKMPLIGLGTWKSDPGQVKAAIKYALSVGYRHIDCAAIYGNETEIGEALKENVGPGKLVPREELFVTSKLWNTKHHPEDVEPALRKTLADLQLEYLDLYLMHWPYAFERGDSPFPKNADGTIRYDSTHYKETWRALEALVAKGLVRALGLSNFNSRQIDDVLSVASVRPAVLQVECHPYLAQNELIAHCQARNLEVTAYSPLGSSDRAWRDPEEPVLLKEPVVLALAEKHGRSPAQILLRWQVQRKVSCIPKSVTPSRILENIQVFDFTFSPEEMKQLDALNKNLRFIVPMLTVDGKRVPRDAGHPLYPFNDPY", "notes": "Bovine kidney tissue (˜50 g) was suspended in 100 ml of lysis buffer; tissue Rockland Immunochemicals Inc. (tissue supplier); host or cells: bovine kidney"}},
  "key": {"Adh6": {"biological_target": "T1, Adh6 (Saccharomyces cerevisiae, UniProt Q04894)", "T1 construct": "endogenous in cells; host or cells: S. cerevisiae cells; five-step chromatographic purification from crude extract", "T1 sequence (Q04894 1-360)": "B1 chain", "assay": "Kinetic analysis and substrate specificity of SNO-CoA reductase activity of purified Adh6", "format": "biochemical, yeast (S. cerevisiae)", "conditions": "purified Adh6 20 nM, NADPH 100 μM, substrate 100 μM (FIG. 2D)", "experimental": "(§1) Kinetic analysis was carried out with purified Adh6 and AKR1A1. The reactions contained a fixed concentration of NADPH (100 μM) and several concentrations of SNO-CoA.\n(§2) Kinetic analysis was carried out employing assay conditions as above. For Km determination, reactions (4-5 replicates) were performed with a fixed amount of purified Adh6, 100 μM NADPH and SNO-CoA concentrations of 16-375 μM. Initial rates were calculated from the absorbance decrease at 340 nm using a combined extinction coefficient of 7.06 mM^−1 cm^−1 for SNO and NADPH. The kcat was determined at saturating substrate concentrations."}, "intact yeast cells": {"test_system": "intact yeast cells", "assay": "SNO-RAC/iTRAQ identification of SNO-proteins in treated intact yeast", "format": "cell-based, yeast (S. cerevisiae)", "conditions": "intact cells treated with 100 μM for 2 hr", "experimental": "Protein S-nitrosylation was assessed by the SNO-RAC assay, and differences in the profile of protein S-nitrosylation in WT versus adh6Δ yeast (under basal growth conditions and upon treatment of cells with EtCysNO) were quantified by iTRAQ labeling.\n(§3) For analysis in yeast, cells were grown to absorbance 600 nm=1.0 and lysed by bead beating in lysis buffer (20 mM bis-tris propane, pH 7.0, 50 mM NaCl, 100 mM EDTA, 100 μM DTPA, 1 mM PMSF and protease inhibitor cocktail (Roche)). The lysate was centrifuged at 20,000 g for 10 min and the supernatant was adjusted to 1 mg/ml protein and retained for analysis. For analysis of SNO-proteins by mercury-coupled-photolysis-chemiluminescence, samples were processed as previously described. […] Eluates were analyzed by SDS-PAGE followed by Western blotting for erg10 (see below) or, for mass spectrometric analysis, individual lanes were excised from the gel and subjected to trypsin digest prior to processing for LC/MS-MS (see below). […]\n(§4) Prior to analysis by LC-MS/MS, samples were passed through a C18 spin column (Thermo Pierce, Rockford, Ill.) and reconstituted in 0.1% formic acid. […] For peptide identification and quantification using iTRAQ reporter ions, MS analysis was performed using a hybrid linear ion trap Orbitrap Velos mass spectrometer (LTQ-Orbitrap Velos, Thermo, Waltham, Mass.). […]"}, "WT and adh6Δ yeast": {"test_system": "WT and adh6Δ yeast", "assay": "Metabolomic analysis of mevalonate, CoA and acetyl-CoA in treated yeast", "format": "cell-based, yeast (S. cerevisiae)", "conditions": "2 hr", "experimental": "In extracts of WT and adh6Δ yeast (untreated and following treatment with EtCysNO), mevalonate, CoA and acetyl-CoA were separated and quantified by GC-MS (mevalonate) or LC-MS/MS (CoA, acetyl-CoA).\nYeast cells grown to mid-log phase (absorbance 600 nm=0.4-0.6) were left untreated or treated with EtCysNO (100 μM) for 2 hrs. Cells were harvested and washed with ice-cold H2O containing 0.1 mM EDTA or DTPA and stored at −80° C. until further analysis. To the samples, 3 ml of MeOH: H2O (8:2) was added followed by addition of 100 μl of D4 (1 mM) citrate as an internal standard. Samples were homogenized for 1 minute and 1 ml of the subsequent homogenate was taken and centrifuged at 800 g for 20 minutes. Supernatant was dried by nitrogen gas. 60 μl of N,O-bistrifluoroacetaniide was added to the dried residue and incubated at 70° C. for 30 minutes. Analyses were carried out on an Agilent 5973 mass spectrometer, linked to a 6890 gas chromatograph system equipped with an autosampler. An Agilent VF-5MS capillary column (60 m×0.32 mm×0.25 μm) was used for chromatographic separation. The carrier gas was helium (1 ml/min) with a pulse pressure of 20.1 p.s.i. The injection was in splitless mode. The temperature for both inlet and transfer line was set at 300° C. The ion source and quadrupole temperature were set at 230 and 150° C. The GC temperature program was as follows: start at 80° C., hold for 1 min, and increase by 10° C./min to 300° C., and it remained at 300° C. for 9 min. Mevalonate and internal standard signals were monitored at its nominal m/z with SIM mode. The m/z monitored for mevalonate and internal standard: 349 and 469, respectively. All the masses were measured in Electron Impact Ion Source. The retention times of mevalonate and internal standard are 15.2 and 18.1 minutes, respectively.\nYeast cells grown to mid-log phase (absorbance 600 nm=0.4-0.6) were left untreated or treated with EtCysNO (500 μM) for 2 hrs. […]"}, "[1]": {"biological_target": "T2, Erg10 (acetoacetyl-CoA thiolase) (Saccharomyces cerevisiae, UniProt P41338)", "T2 construct": "Erg10 activity was assayed in extracts of WT yeast in the presence or absence of SNO-CoA; endogenous in cells; host or cells: wild-type S. cerevisiae lysate/extract", "T2 sequence (P41338 whole entry)": "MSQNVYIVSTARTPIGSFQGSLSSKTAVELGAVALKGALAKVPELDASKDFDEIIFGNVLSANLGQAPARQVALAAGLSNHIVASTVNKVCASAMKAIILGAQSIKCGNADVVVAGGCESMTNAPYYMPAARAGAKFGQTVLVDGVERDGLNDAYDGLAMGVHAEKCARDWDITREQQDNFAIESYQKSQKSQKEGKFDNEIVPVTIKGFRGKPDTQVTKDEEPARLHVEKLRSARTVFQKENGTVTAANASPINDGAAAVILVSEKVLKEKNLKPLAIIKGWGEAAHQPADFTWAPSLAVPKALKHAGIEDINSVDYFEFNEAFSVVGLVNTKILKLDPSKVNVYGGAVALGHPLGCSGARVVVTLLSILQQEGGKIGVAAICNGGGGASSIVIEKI", "assay": "Assay for acetoacetyl-CoA thiolase (Erg10) activity", "format": "biochemical, yeast (S. cerevisiae)", "conditions": "for Effect on Erg10 thiolase activity: yeast extracts and purified protein (FIG. 4D, E)", "experimental": "Acetoacetyl-CoA thiolase activity was assayed in the physiological forward direction (2 acetyl-CoA→acetoactyl-CoA+CoA-SH) by following the formation of CoA-SH with 5,5′-dithiobis(2-nitrobenzoic acid) (DTNB) at 412 nm, as outlined recently for assay of HMG-CoA synthase activity. This approach avoids background absorbance in lysates and interference from added SNO-CoA in the reverse-reaction assay of acetoacetyl-CoA consumption at 300 nm (acetoacetyl-CoA+CoA-SH→2 acetyl-CoA). The assay was performed in 20 mM tris pH 8.0, containing 0.1 mM EDTA and 0.1 mM DTPA. The reaction mixture (1 ml) contained yeast lysate and 100 μM acetyl-CoA. Reaction without the addition of acetyl-CoA was used as background control. In some experiments, various concentrations of GSNO or SNO-CoA were also added. The reaction was monitored following the addition of 0.5 mM DTNB for 3 min at 412 nm. Thiolase activity was determined using rates between 1 and 3 minutes."}, "[2]": {"test_system": "lysates of wild-type (WT) yeast", "assay": "SNO-RAC/LC-MS/MS identification of SNO-proteins in treated yeast lysates", "format": "biochemical, yeast (S. cerevisiae)", "conditions": "lysates treated with 60 μM for 10 min", "experimental": "as §3, with “described. For SNO-RAC, some samples (1 mg/ml) were left untreated or treated for 10 min with 60 μM SNO-CoA±100 μM NADPH. The reaction was stopped by adding 3 volumes of ice-cold acetone, followed by precipitation at −20° C. for 20 min.” for “described.”\nas §4"}, "[3]": {"substrate": "CC(C)(COP(=O)(O)OP(=O)(O)OC[C@H]1O[C@@H](n2cnc3c(N)ncnc32)[C@H](O)[C@@H]1OP(=O)(O)O)[C@@H](O)C(=O)NCCC(=O)NCCSN=O", "assay": "Kinetic analysis and substrate specificity of SNO-CoA reductase activity of purified Adh6", "format": "biochemical, yeast (S. cerevisiae)", "conditions": "other: purified Adh6, 100 μM NADPH", "experimental": "as §1, §2"}, "[4]": {"substrate": "CC(C)(COP(=O)(O)OP(=O)(O)OC[C@H]1O[C@@H](n2cnc3c(N)ncnc32)[C@H](O)[C@@H]1OP(=O)(O)O)[C@@H](O)C(=O)NCCC(=O)NCCSN=O", "assay": "Kinetic analysis of SNO-CoA reductase activity of purified AKR1A1", "format": "biochemical, bovine", "conditions": "other: purified AKR1A1, 100 μM NADPH; pH 7.0", "experimental": "as §1\nKinetic analyses were carried out in 50 mM phosphate buffer, pH 7.0, containing 100 μM EDTA and DTPA. For Km determination, reactions (2-4 replicates) were performed with a fixed amount of purified AKR1A1, 100 μM NADPH and 2-500 μM SNO-CoA. Initial rates were calculated from the absorbance decrease at 340 nm. The kcat was determined at saturating substrate concentrations."}},
  "data": [
    {"molecule": "N[C@@H](CSN=O)C(=O)O", "note": "[CysNO, S-nitroso-cysteine]", "values": [
      {"measurement": "Metabolism by Adh6 (NADPH consumption)", "setting": "Adh6", "value": "does not metabolize"}
    ]},
    {"molecule": "CCOC(=O)[C@@H](N)CSN=O", "note": "[EtCysNO, S-nitroso-cysteine ethyl ester]", "values": [
      {"measurement": "Number of SNO-proteins identified", "setting": "intact yeast cells", "value": 103},
      {"measurement": "Change of mevalonate levels", "setting": "WT and adh6Δ yeast; adh6Δ yeast, 100 μM", "value": "significant decrease"},
      {"measurement": "Change of free CoA levels", "setting": "WT and adh6Δ yeast; yeast, 500 μM", "value": "large decreases"},
      {"measurement": "Change of acetyl-CoA levels", "setting": "WT and adh6Δ yeast; yeast, 500 μM, increase larger in adh6Δ versus WT cells", "value": "increased"}
    ]},
    {"molecule": "N[C@@H](CCC(=O)N[C@@H](CSN=O)C(=O)NCC(=O)O)C(=O)O", "note": "[GSNO, S-nitrosoglutathione]", "values": [
      {"measurement": "Effect on Erg10 thiolase activity", "setting": "[1]", "value": "neither GSNO (FIG. 4D) nor succinyl-CoA (a CoA analogue) (FIG. 4E) had a significant effect"},
      {"measurement": "Metabolism by Adh6 (NADPH consumption)", "setting": "Adh6", "value": "specific for SNO-CoA versus GSNO"}
    ]},
    {"molecule": "CC(C)(COP(=O)(O)OP(=O)(O)OC[C@H]1O[C@@H](n2cnc3c(N)ncnc32)[C@H](O)[C@@H]1OP(=O)(O)O)[C@@H](O)C(=O)NCCC(=O)NCCSN=O", "note": "[SNO-CoA, S-nitroso-CoA]", "values": [
      {"measurement": "IC50", "setting": "[1]; purified protein, read-out: IC50 for inhibition of Erg10 thiolase activity", "value": 4, "unit": "µM"},
      {"measurement": "Effect on Erg10 thiolase activity", "setting": "[1]", "value": "potently inhibited"},
      {"measurement": "Number of SNO-proteins identified", "setting": "[2]", "value": 345}
    ]},
    {"molecule": "CC(C)(COP(=O)(O)OP(=O)(O)OC[C@H]1O[C@@H](n2cnc3c(N)ncnc32)[C@H](O)[C@@H]1OP(=O)(O)O)[C@@H](O)C(=O)NCCC(=O)NCCSC(=O)CCC(=O)O", "note": "[succinyl-CoA]", "values": [
      {"measurement": "Effect on Erg10 thiolase activity", "setting": "[1]", "value": "neither GSNO (FIG. 4D) nor succinyl-CoA (a CoA analogue) (FIG. 4E) had a significant effect"}
    ]},
    {"molecule": "B1", "values": [
      {"measurement": "Km", "setting": "[3]", "value": "180.5 ± 16.8", "unit": "µM"},
      {"measurement": "kcat", "setting": "[3]", "value": "43.275 ± 1.845", "unit": "s⁻¹"}
    ]},
    {"molecule": "B2", "values": [
      {"measurement": "Km", "setting": "[4]", "value": "20.5 ± 1.8", "unit": "µM"},
      {"measurement": "kcat", "setting": "[4]", "value": "10.4 ± 0.396", "unit": "s⁻¹"}
    ]}
  ]
}
